For data set [1], the system named is MRC-5 human fibroblast cell lines. In words: Cytotoxicity on MRC-5 human fibroblast cell lines (Alamar Blue/resazurine, 24 h). The data set is classed as cell-based. To be noted: MRC-5 cells, 24 hours incubation, 1% DMSO. On the procedure: The toxic effect of the compounds was measured on MRC-5 human fibroblast cell lines in accordance with the method that has been described in the article published by Molnár et al. [L. Molnár, G. M. Keserü, Á. Papp, Z. Lörincz, G. Ambrus és F. Darvas.: A neural network based classification scheme for cytotoxicity predictions: Validation on 30,000 compounds, Bioorg. Med. Chem. Lett. 16(4), 1037-9 (2006)]. The cells were incubated for a cell cycle (24 hours) with solutions of various concentrations prepared from the compounds, in the presence of 1% of DMSO. 3 parallel measurements were carried out with 6 different concentrations. The ratio of the viable cells was determined by reducing the Alamaar Blue (resazurine) reagent that was followed fluorimetrically. The measured materials were not toxic on the given cell line in a concentration of 128 μmol after incubation for one day.
In the following Table 1 the cytotoxicity of some compounds according to the invention is given.

The next data set deals with P-glycoprotein. The experiment in a line: Reversal of multidrug resistance: rhodamine 123 accumulation in human mdr1 transfected L5178 mouse T-cell lymphoma cells (flow cytometry). Type of data set: cell-based. To be noted: for Multidrug resistance reversing effect (in words): 4 and 40 μg/mL, at higher concentration multiple of fluorescence activity of Verapamil; for Vrel = effect related to Verapamil: Verapamil at 10 μg/ml; for R = ratio of fluorescence and activity / R (activity ratio, fluorescence): rhodamine 123; for R: Table 4 concentration series; for Multidrug resistance reversing effect at lower concentrations (in words): lower concentration (4 μg/mL), similar values at higher concentration, indicating saturation. On the procedure:
L5178 mouse T-cell lymphoma cells were transfected with pHa MDR1/A retrovirus, by the method as described by J. L. Weaver [J. L. Weaver, G. Szabó, P. S. Pine, M. M. Gottesmann, S. Goldenberg and A. Aszalos: The effect of ion channel blockers, immunosuppressive agents and other drugs on the activity of the multidrug transporter. Int. […] Mdr-1-expressing cell lines were selected by culturing the transfected cells with 60 ng/mL of colchicine to maintain the expression of the MDR phenotype. L5178 (parent) mouse T-cell lymphoma cells and the human mdr1 transfected subline were cultured in McCoy's 5A medium supplemented with 10% by mass of heath-inactivated horce serum, L-glutamine and antibiotics. Both cell lines were cultured at 37° C. The mouse lymphoma cell line was maintained in a 5% CO2 atmosphere.
The assays were carried out by the method as described by J. Molnár et al. [J. Molnár, I. Mucsi, J. Nacsa, A. Hevér, N. Gyémánt, K. Ugocsai, P. Hegyes, S. Kiessig, D. Gaal, H. Lage and A. Varga: New silicon compounds as resistance modifiers against multidrug-resistant cells. […] The cell density was set to a value of 2×10^6/mL, then the cells were resuspended in a serum-free McCoy's 5A medium and divided in aliquots of 0.5 mL in Eppendorf centrifuge tubes. The tested compounds were added in different concentrations to different volumes (2.0-20.0 μL) of 1.0-10.0 mg/mL stock solutions and the samples were incubated for 10 minutes at room temperature. […] The fluorescence of the cell population was measured with a Beckton Dickinson FACScan flow cytometer. […] The percentage value of the mean fluorescence intensity was calculated for the treated MDR and for the parental cell lines as compared with the values obtained with the untreated cells. The activity ratio (R) was calculated on the basis of the measured fluorescence values by the following equation: […]

The results in this text go back to US8183292B2, “Chiral cyclic β-amino acids and their derivatives, pharmaceutical compositions containing them and the use of such compounds” (BioBlocks Magyarorszag Gyogyszerkemiai es Fejleszto Kft., priority 2006, dated 2012).

`CCOC(=O)[C@H]1C[C@H]2C[C@@H]([C@H]1N(Cc1ccccc1)C(=S)Nc1cccc(OC)c1)C2(C)C` [Compound 47, (1R,2R,3S,5R)-1-Benzyl-1-(3-Ethoxycarbonyl-6,6-Dimethylbicyclo[3.1.1]Heptan-2-yl)-3-(3-Methoxyphenyl)-Thiourea] displayed a melting point of 109 to 112 °C. Further, in data set [1], the “Survival (%) [c = 128 μM]” value is recorded as 97.7%. Besides, the “Effect in concentration series (in words)” value in the data set on P-glycoprotein (0.04, 0.08, 0.4, 0.8 and 4 μg/mL) is listed as “Dose-dependence was observed”. Also, in the data set on P-glycoprotein, the “Multidrug resistance reversing effect (in words)” value is “significant dose-dependent effect” and the “Multidrug resistance reversing effect at lower concentrations (in words)” value is “considerable multidrug resistance reversing effect”. In addition, in the data set with P-glycoprotein (Table 3, 4 μg/ml), the “Vrel = effect related to Verapamil” value is 3.02; the “R = ratio of fluorescence and activity” value was found to be 34.76. Besides, in the data set on P-glycoprotein (Table 3, 40 μg/ml), the “Vrel = effect related to Verapamil” value was determined as 3.07; the “R = ratio of fluorescence and activity” value is reported as 35.35. In the data set on P-glycoprotein (0.04 μg/ml), the R is listed as 1.44. Further, the R with P-glycoprotein (0.08 μg/ml) is 1.60. In addition, the R in the data set on P-glycoprotein (0.4 μg/ml) was determined as 6.03. The R with P-glycoprotein (0.8 μg/ml) is listed as 7.16. Also, the R with P-glycoprotein (4 μg/ml) is reported as 35.20. Also, the “Concentration sufficient for a significant P-glycoprotein-inhibiting effect” value in the data set on P-glycoprotein (concentration series 0.04-4 μg/mL) was 0.4 µg/mL.

Compound `CCOC(=O)[C@@H]1C[C@H]2C[C@@H]([C@H]1NC(=S)Nc1cccc(OC)c1)C2(C)C` [Compound 49, (1R,2R,3R,5R)-1-(3-Ethoxycarbonyl-6,6-Dimethylbicyclo[3.1.1]Heptan-2-yl)-3-(3-Methoxyphenyl)-Thiourea] came in with a melting point of 118 to 120 °C. The “Survival (%) [c = 128 μM]” value in data set [1] is 250.9%. Besides, in the data set with P-glycoprotein, the “Multidrug resistance reversing effect (in words)” value is given as “significant dose-dependent effect”. In addition, in the data set with P-glycoprotein (Table 2, 4 μg/ml), the “Vrel = effect related to Verapamil” value is on record as 0.56 and the “R (activity ratio, fluorescence)” value was found to be 2.77. Also, in the data set with P-glycoprotein (Table 2, 40 μg/ml), the “Vrel = effect related to Verapamil” value amounted to 5.71 and the “R (activity ratio, fluorescence)” value amounted to 28.07.

As to `CCOC(=O)[C@@H]1C[C@H]2C[C@@H]([C@H]1NC(=O)Nc1ccc(Cl)cc1)C2(C)C` [Compound 50, (1R,2R,3R,5R)-1-(3-Ethoxycarbonyl-6,6-Dimethylbicyclo[3.1.1]Heptan-2-yl)-3-(4-Chlorophenyl)-Urea], the melting point was in the range of 167 to 169 °C. Also, in data set [1], the “Survival (%) [c = 128 μM]” value was found to be 167.6%. In the data set on P-glycoprotein, the “Multidrug resistance reversing effect (in words)” value was “significant dose-dependent effect”. In the data set on P-glycoprotein (Table 3, 4 μg/ml), the “Vrel = effect related to Verapamil” value was found to be 0.16; the “R = ratio of fluorescence and activity” value is recorded as 1.87. In the data set on P-glycoprotein (Table 3, 40 μg/ml), the “Vrel = effect related to Verapamil” value was 3.70; the “R = ratio of fluorescence and activity” value came out at 42.58.

On to `CCOC(=O)[C@@H]1C[C@H]2C[C@@H]([C@H]1N(Cc1ccccc1)C(=S)Nc1cccc(OC)c1)C2(C)C` [Compound 52, (1R,2R,3R,5R)-1-Benzyl-1-(3-Ethoxycarbonyl-6,6-Dimethylbicyclo[3.1.1]-Heptan-2-yl)-3-(3-Methoxyphenyl)-Thiourea], for which the melting point fell in the range of 110 to 111 °C. The “Survival (%) [c = 128 μM]” value in data set [1] worked out at 113.0%. Moreover, in the data set with P-glycoprotein (Table 3, 4 μg/ml), the “Vrel = effect related to Verapamil” value was 1.90; the “R = ratio of fluorescence and activity” value was 21.87. For the same compound, in the data set with P-glycoprotein (Table 3, 40 μg/ml), the “Vrel = effect related to Verapamil” value worked out at 2.13; the “R = ratio of fluorescence and activity” value is recorded as 24.44. In addition, the “Multidrug resistance reversing effect at lower concentrations (in words)” value with P-glycoprotein was “considerable multidrug resistance reversing effect”.
